Laboratory results: EPA's ToxRefDB 2

What was measured:
mouse = conditions: Combined chronic toxicity/carcinogenicity, cd1, Oral, Gavage/Intubation, dose end: 24 month, group: systemic
rat [1] = conditions: Subchronic oral toxicity in rodents, sprague dawley, Gavage/Intubation, dose end: 13 week, group: systemic
rat [2] = conditions: Combined chronic toxicity/carcinogenicity; Oral; Gavage/Intubation; dose end: 104 week; group: systemic; systemic / in life observation / body weight / body weight gain + systemic / in life observation / water consumption / water consumption + …
rat [3] = conditions: Prenatal developmental toxicity study, Charles River COBS CD rats, Oral, Gavage/Intubation, dose end: 20 GD
dog [4] = conditions: Chronic toxicity; beagle; Oral; Capsule; dose end: 52 week; group: systemic; systemic / in life observation / body weight / body weight gain + systemic / in life observation / clinical signs / salivation + systemic / …
rat [5] = conditions: Multigenerational reproductive toxicity study, other, Oral, Gavage/Intubation, dose end: 2 generation
dog [6] = conditions: Subchronic oral toxicity in nonrodent, beagle, Capsule, dose end: 13 week, group: systemic
dog [7] = conditions: Subchronic oral toxicity in nonrodent, beagle, Gavage/Intubation, dose end: 91 day, group: systemic, systemic / in life observation / body weight / body weight + systemic / in life observation / body weight / body weight gain + systemic / …
rat [8] = conditions: Subchronic oral toxicity in rodents, other, Gavage/Intubation, dose end: 90 day, group: systemic, systemic / in life observation / body weight / body weight + systemic / in life observation / body weight / body weight gain + systemic / …
rat [9] = conditions: Subchronic oral toxicity in rodents, Fischer, Feed, dose end: 13 week, group: systemic, systemic / clinical chemistry / thyroxine (t4) / thyroxine (t4), total + systemic / clinical chemistry / triiodothyronine (t3) / …
rat [10] = conditions: Prenatal developmental toxicity study, other, Oral, Gavage/Intubation, dose end: 15 GD
[11] = systemic / organ weight / ovary / absolute + systemic / organ weight / ovary / relative to body weight + systemic / organ weight / adrenal …
[12] = systemic / organ weight / liver / absolute + systemic / in life observation / body weight / body weight gain + systemic / in life …
[13] = group: developmental, systemic / in life observation / body weight / offspring (pup) weight
[14] = group: maternal, systemic / in life observation / body weight / body weight gain + systemic / in life observation / clinical signs / salivation
[15] = group: offspring, systemic / in life observation / clinical signs / reduced body size
[16] = group: parental, systemic / in life observation / body weight / body weight gain
[17] = systemic / in life observation / clinical signs / watery stools
[18] = group: developmental, developmental / developmental malformation / bone / incomplete ossification + developmental / developmental malformation / bone / wavy + …
[19] = group: maternal, systemic / in life observation / body weight / body weight gain + systemic / in life observation / food consumption / food consumption
[20] = group: maternal, systemic / in life observation / body weight / body weight gain + systemic / in life observation / food consumption / food consumption + …

SMILES: CC1(C)[C@H](C(=O)O[C@H](C#N)c2cccc(Oc3ccccc3)c2)[C@@H]1C(Br)C(Br)(Br)Br (stereo partly specified) [Tralomethrin]
- LEL (mouse; [11]): 0.75 mg/kg/day
- NEL (mouse; [11]): < 0.75 mg/kg/day
- LOAEL (mouse; systemic / pathology gross / skin / lesion(s) (nos)): 3 mg/kg/day
- NOAEL (mouse; systemic / pathology gross / skin / lesion(s) (nos) + systemic / in life observation / clinical signs / abnormal motor movement + systemic…): 0.75 mg/kg/day
- LOAEL (rat [1]; systemic / organ weight / liver / absolute): 6 mg/kg/day
- LEL (rat [1]; systemic / organ weight / liver / absolute + systemic / in life observation / body weight / body weight gain): 6 mg/kg/day
- NEL (rat [1]; [12]): 1 mg/kg/day
- NOAEL (rat [1]; [12]): 1 mg/kg/day
- LEL (rat [2]): 3 mg/kg/day
- LOAEL (rat [2]): 3 mg/kg/day
- NEL (rat [2]): 0.75 mg/kg/day
- NOAEL (rat [2]): 0.75 mg/kg/day
- LEL (rat [3]; [13]): 12 mg/kg/day
- LOAEL (rat [3]; [13]): > 12 mg/kg/day
- NEL (rat [3]; [13]): 3 mg/kg/day
- NOAEL (rat [3]; [13]): ≥ 12 mg/kg/day
- LOAEL (rat [3]; group: maternal, systemic / in life observation / body weight / body weight gain + reproductive / offspring survival early / birth index / live birth index): 12 mg/kg/day
- LEL (rat [3]; group: maternal, systemic / in life observation / body weight / body weight gain + reproductive / offspring survival early / birth index / live birth index…): 12 mg/kg/day
- NEL (rat [3]; [14]): 3 mg/kg/day
- NOAEL (rat [3]; [14]): 3 mg/kg/day
- LEL (dog [4]): 3 mg/kg/day
- LOAEL (dog [4]): 3 mg/kg/day
- NEL (dog [4]): 1 mg/kg/day
- NOAEL (dog [4]): 1 mg/kg/day
- LEL (rat [5]; [15]): 0.75 mg/kg/day
- LOAEL (rat [5]; [15]): 0.75 mg/kg/day
- NEL (rat [5]; [15]): < 0.75 mg/kg/day
- NOAEL (rat [5]; [15]): < 0.75 mg/kg/day
- LEL (rat [5]; [16]): 3 mg/kg/day
- LOAEL (rat [5]; [16]): 3 mg/kg/day
- NEL (rat [5]; [16]): 0.75 mg/kg/day
- NOAEL (rat [5]; [16]): 0.75 mg/kg/day
- LOAEL (dog [6]; systemic / hematology / erythrocyte (rbc) count differential / erythrocyte (rbc) + systemic / hematology / hemoglobin (hgb) / hemoglobin (…): 10 mg/kg/day
- LEL (dog [6]; [17]): 0.1 mg/kg/day
- NEL (dog [6]; [17]): < 0.1 mg/kg/day
- NOAEL (dog [6]; systemic / in life observation / clinical signs / watery stools + systemic / hematology / erythrocyte (rbc) count differential / erythrocyte…): 1 mg/kg/day

SMILES: CCC(CN1CCOCC1)[N+](=O)[O-] (stereo unspecified) [4-(2-Nitrobutyl)morpholine]
- LEL (dog [7]): 25 mg/kg/day
- LOAEL (dog [7]): 25 mg/kg/day
- NEL (dog [7]): 10 mg/kg/day
- NOAEL (dog [7]): 10 mg/kg/day
- LEL (rat [8]): 10 mg/kg/day
- LOAEL (rat [8]): > 50 mg/kg/day
- NEL (rat [8]): 5 mg/kg/day
- NOAEL (rat [8]): ≥ 50 mg/kg/day

SMILES: CNC.O=C(O)COc1ccc(Cl)cc1Cl [2,4-D, Dimethylamine salt]
- LEL (rat [9]): 120 mg/kg/day
- LOAEL (rat [9]): 120 mg/kg/day
- NEL (rat [9]): 18.1 mg/kg/day
- NOAEL (rat [9]): 18.1 mg/kg/day
- LOAEL (rat [10]; [18]): 100 mg/kg/day
- NEL (rat [10]; [18]): 12.5 mg/kg/day
- NOAEL (rat [10]; [18]): 50 mg/kg/day
- LEL (rat [10]; group: developmental, developmental / developmental malformation / general / [other]): 50 mg/kg/day
- LEL (rat [10]; [19]): 50 mg/kg/day
- LOAEL (rat [10]; [19]): 50 mg/kg/day
- NEL (rat [10]; [20]): 12.5 mg/kg/day
- NOAEL (rat [10]; [20]): 12.5 mg/kg/day
